The record followed here is US20100105727A1, “NOVEL BENZAMIDE DERIVATIVES AND PROCESS FOR THE PREPARTION THEREOF” (DONG-A-PHARM. CO., LTD., priority 2007, published 2010).

By IC50 is commonly meant the midpoint of a concentration-inhibition curve. A lower IC50 goes with greater potency.

The assay deals with T1, human 5-HT4 receptor (Homo sapiens, UniProt Q13639).
T1 construct: expressed in transfected cells; host or cells: COS-7
The experiment in a line: Binding affinity of compounds for 5-HT4 receptor (radioligand displacement, membrane lysates of COS-7 cells). As to conditions: inhibition of specific binding of 0.595 nM [H3]-AGR113808; COS-7 cell membrane lysates expressing human 5-HT4 receptor. On the procedure: For this purpose, COS-7 cells expressing the human 5-HT4 receptor were constructed and lysed to obtain cell membrane lysates which were then used in binding assay experiments. For binding assay, the membrane lysates were mixed and incubated with different concentrations of test materials and [H3]-AGR113808. […] After incubation was completed, the reaction products were collected in a GF/B glass fiber filter using a Packard cell harvester, and the bound radioactivity was then determined using a liquid cell scintillation counter (Packard TopCount NXT™, Perkin Elmer). Specific binding of the radioligand to the 5-HT4 receptor was calculated by subtracting the non-specific binding of the radioligand from the total radioligand binding. IC50 was calculated from % inhibition of specific binding of the radioligand to the 5-HT4 receptor, with respect to varying concentrations of the test materials.
(In general: Displacement assays read how much labelled ligand stays bound in the presence of the test substance.)

The structures appear in SMILES notation.

T1 sequence (Q13639 whole entry): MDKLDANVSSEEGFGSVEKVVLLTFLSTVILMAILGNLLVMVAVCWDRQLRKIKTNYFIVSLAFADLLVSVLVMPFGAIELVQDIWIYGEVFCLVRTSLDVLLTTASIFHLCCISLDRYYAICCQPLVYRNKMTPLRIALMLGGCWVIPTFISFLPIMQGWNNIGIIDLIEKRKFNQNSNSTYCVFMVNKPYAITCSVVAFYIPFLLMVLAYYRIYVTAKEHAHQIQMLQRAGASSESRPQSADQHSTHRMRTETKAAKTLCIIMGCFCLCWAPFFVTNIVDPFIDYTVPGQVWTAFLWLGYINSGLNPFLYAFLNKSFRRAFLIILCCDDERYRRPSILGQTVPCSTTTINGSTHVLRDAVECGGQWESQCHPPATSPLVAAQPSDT

Regarding `CCOC(=O)N1CCC(CCN2CC[C@H](NC(=O)c3cc(Cl)c(N)cc3OC)[C@H](OC)C2)CC1` (relative stereo) [Compound 3, ethyl 4-[2-(cis-4-(4-amino-5-chloro-2-methoxybenzamido)-3-methoxypiperidin-1-yl)ethyl]piperidine-1-carboxylate], the IC50 turned out to be 151 nM.

`COC(=O)N1CCC(CN2CC[C@H](NC(=O)c3cc(Cl)c(N)cc3OC)[C@H](OC)C2)CC1` (relative stereo) [Compound 5, methyl 4-[(cis-4-(4-amino-5-chloro-2-methoxybenzamido)-3-methoxypiperidin-1-yl)methyl]piperidine-1-carboxylate] yielded an IC50 of 130 nM.

Consider `CCCCOC(=O)N1CCC(CN2CC[C@H](NC(=O)c3cc(Cl)c(N)cc3OC)[C@H](OC)C2)CC1` (relative stereo) [Compound 7, butyl 4-[(cis-4-(4-amino-5-chloro-2-methoxybenzamido)-3-methoxypiperidin-1-yl)methyl]piperidine-1-carboxylate], for which the IC50 amounted to 53 nM.

Take `COc1cc(N)c(Cl)cc1C(=O)N[C@H]1CCN(CC2CCN(C(=O)OC(C)C)CC2)C[C@H]1OC` (relative stereo) [Compound 8, isopropyl 4-[(cis-4-(4-amino-5-chloro-2-methoxybenzamido)-3-methoxypiperidin-1-yl)methyl]piperidine-1-carboxylate]: the IC50 was determined as 130 nM.

`COc1cc(N)c(Cl)cc1C(=O)N[C@H]1CCN(CC2CCN(C(=O)OCC(C)C)CC2)C[C@H]1OC` (relative stereo) [Compound 9, isobutyl 4-[(cis-4-(4-amino-5-chloro-2-methoxybenzamido)-3-methoxypiperidin-1-yl)methyl]piperidine-1-carboxylate] came in with an IC50 of 108 nM.

Regarding `C=CCOC(=O)N1CCC(CN2CC[C@H](NC(=O)c3cc(Cl)c(N)cc3OC)[C@H](OC)C2)CC1` (relative stereo) [Compound 10, allyl 4-[(cis-4-(4-amino-5-chloro-2-methoxybenzamido)-3-methoxypiperidin-1-yl)methyl]piperidine-1-carboxylate], the IC50 came to 93 nM.

In turn, `CCCCC(CC)COC(=O)N1CCC(CN2CC[C@H](NC(=O)c3cc(Cl)c(N)cc3OC)[C@H](OC)C2)CC1` (relative stereo) [Compound 11, 2-ethylhexyl 4-[(cis-4-(4-amino-5-chloro-2-methoxybenzamido)-3-methoxypiperidin-1-yl)methyl]piperidine-1-carboxylate] showed an IC50 of 30 nM.

Take `CCC(C)CCOC(=O)N1CCC(CN2CC[C@H](NC(=O)c3cc(Cl)c(N)cc3OC)[C@H](OC)C2)CC1` (relative stereo) [Compound 12, 3-methyl-pentyl 4-[(cis-4-(4-amino-5-chloro-2-methoxybenzamido)-3-methoxypiperidin-1-yl)methyl]piperidine-1-carboxylate]: the IC50 came to 192 nM.

With `COc1cc(N)c(Cl)cc1C(=O)N[C@H]1CCN(CC2CCN(C(=O)OCCCC(C)C)CC2)C[C@H]1OC` (relative stereo) [Compound 13, 4-methyl-pentyl 4-[(cis-4-(4-amino-5-chloro-2-methoxybenzamido)-3-methoxypiperidin-1-yl)methyl]piperidine-1-carboxylate], the IC50 worked out at 146 nM.

On to `CCCC(=O)N1CCC(CN2CC[C@H](NC(=O)c3cc(Cl)c(N)cc3OC)[C@H](OC)C2)CC1` (relative stereo) [Compound 20, cis-4-amino-5-chloro-N-[1-((1-butyrylpiperidin-4-yl)methyl)-3-methoxypiperidin-4-yl]-2-methoxybenzamide], for which the IC50 turned out to be 106 nM.

`CCCCC(=O)N1CCC(CN2CC[C@H](NC(=O)c3cc(Cl)c(N)cc3OC)[C@H](OC)C2)CC1` (relative stereo) [Compound 22, cis-4-amino-5-chloro-N-[1-((1-pentanoylpiperidin-4-yl)methyl)-3-methoxypiperidin-4-yl]-2-methoxybenzamide] had an IC50 of 73 nM.

Compound `CCCCCC(=O)N1CCC(CN2CC[C@H](NC(=O)c3cc(Cl)c(N)cc3OC)[C@H](OC)C2)CC1` (relative stereo) [Compound 23, cis-4-amino-5-chloro-N-[1-((1-hexanoylpiperidin-4-yl)methyl)-3-methoxypiperidin-4-yl]-2-methoxybenzamide] gave an IC50 of 61 nM.

In the case of `CCCC(C)C(=O)N1CCC(CN2CC[C@H](NC(=O)c3cc(Cl)c(N)cc3OC)[C@H](OC)C2)CC1` (relative stereo) [Compound 24, cis-4-amino-5-chloro-N-[1-((1-(2-methylpentanoyl)piperidin-4-yl)methyl)-3-methoxypiperidin-4-yl]-2-methoxybenzamide], the IC50 turned out to be 58 nM.

Take `COc1cc(N)c(Cl)cc1C(=O)N[C@H]1CCN(CC2CCN(C(=O)CC(C)(C)C)CC2)C[C@H]1OC` (relative stereo) [Compound 26, cis-4-amino-5-chloro-N-[1-((1-(3,3-dimethylbutanoyl)piperidin-4-yl)methyl)-3-methoxypiperidin-4-yl]-2-methoxybenzamide]: the IC50 is 45 nM.

As to `COc1cc(N)c(Cl)cc1C(=O)N[C@H]1CCN(CC2CCN(C(=O)CCC(C)C)CC2)C[C@H]1OC` (relative stereo) [Compound 27, cis-4-amino-5-chloro-N-[1-((1-(4-methylpentanoyl)piperidin-4-yl)methyl)-3-methoxypiperidin-4-yl]-2-methoxybenzamide], the IC50 worked out at 89 nM.

With `COc1cc(N)c(Cl)cc1C(=O)N[C@H]1CCN(CC2CCN(C(=S)C(C)C)CC2)C[C@H]1OC` (relative stereo) [Compound 30, cis-4-amino-5-chloro-N-[1-((1-(2-methylpropanethioyl)piperidin-4-yl)methyl)-3-methoxypiperidin-4-yl]-2-methoxybenzamide], the IC50 amounted to 108 nM.

For `COc1cc(N)c(Cl)cc1C(=O)N[C@H]1CCN(CC2CCN(C(C)=S)CC2)C[C@H]1OC` (relative stereo) [Compound 31, cis-4-amino-5-chloro-N-[1-((1-ethanethioylpiperidin-4-yl)methyl)-3-methoxypiperidin-4-yl]-2-methoxybenzamide], the IC50 was found to be 214 nM.

Compound `CCCCC(=S)N1CCC(CN2CC[C@H](NC(=O)c3cc(Cl)c(N)cc3OC)[C@H](OC)C2)CC1` (relative stereo) [Compound 33, cis-4-amino-5-chloro-N-[1-((1-pentanethioylpiperidin-4-yl)methyl)-3-methoxypiperidin-4-yl]-2-methoxybenzamide] showed an IC50 of 107 nM.

For `CCCCCC(=S)N1CCC(CN2CC[C@H](NC(=O)c3cc(Cl)c(N)cc3OC)[C@H](OC)C2)CC1` (relative stereo) [Compound 34, cis-4-amino-5-chloro-N-[1-((1-hexanethioylpiperidin-4-yl)methyl)-3-methoxypiperidin-4-yl]-2-methoxybenzamide], the IC50 came out at 52 nM.

Consider `CCCC(=S)N1CCC(CN2CC[C@H](NC(=O)c3cc(Cl)c(N)cc3OC)[C@H](OC)C2)CC1` (relative stereo) [Compound 35, cis-4-amino-5-chloro-N-[1-((1-butanethioylpiperidin-4-yl)methyl)-3-methoxypiperidin-4-yl]-2-methoxybenzamide], for which the IC50 is 148 nM.
